Data from ChEMBL document CHEMBL4680210, “Discovery of 1,6-naphthyridinone-based MET kinase inhibitor bearing quinoline moiety as promising antitumor drug candidate” (Eur J Med Chem, 2020).

What was measured:
NCI-H460 = test: cells; conditions: Homo sapiens, NCI-H460, 72 h
MKN-45 = test: cells; conditions: Homo sapiens, MKN-45, 72 h
[1] = Half life in rat liver microsomes; assay type: ADME, Microsome
cells = conditions: Homo sapiens, U-87 MG, 72 h
HT-29 = test: cells; conditions: Homo sapiens, HT-29, 72 h
[2] = molecular target: Hepatocyte growth factor receptor (Homo sapiens, UniProt P08581)
Sequence of Hepatocyte growth factor receptor (P08581 whole entry): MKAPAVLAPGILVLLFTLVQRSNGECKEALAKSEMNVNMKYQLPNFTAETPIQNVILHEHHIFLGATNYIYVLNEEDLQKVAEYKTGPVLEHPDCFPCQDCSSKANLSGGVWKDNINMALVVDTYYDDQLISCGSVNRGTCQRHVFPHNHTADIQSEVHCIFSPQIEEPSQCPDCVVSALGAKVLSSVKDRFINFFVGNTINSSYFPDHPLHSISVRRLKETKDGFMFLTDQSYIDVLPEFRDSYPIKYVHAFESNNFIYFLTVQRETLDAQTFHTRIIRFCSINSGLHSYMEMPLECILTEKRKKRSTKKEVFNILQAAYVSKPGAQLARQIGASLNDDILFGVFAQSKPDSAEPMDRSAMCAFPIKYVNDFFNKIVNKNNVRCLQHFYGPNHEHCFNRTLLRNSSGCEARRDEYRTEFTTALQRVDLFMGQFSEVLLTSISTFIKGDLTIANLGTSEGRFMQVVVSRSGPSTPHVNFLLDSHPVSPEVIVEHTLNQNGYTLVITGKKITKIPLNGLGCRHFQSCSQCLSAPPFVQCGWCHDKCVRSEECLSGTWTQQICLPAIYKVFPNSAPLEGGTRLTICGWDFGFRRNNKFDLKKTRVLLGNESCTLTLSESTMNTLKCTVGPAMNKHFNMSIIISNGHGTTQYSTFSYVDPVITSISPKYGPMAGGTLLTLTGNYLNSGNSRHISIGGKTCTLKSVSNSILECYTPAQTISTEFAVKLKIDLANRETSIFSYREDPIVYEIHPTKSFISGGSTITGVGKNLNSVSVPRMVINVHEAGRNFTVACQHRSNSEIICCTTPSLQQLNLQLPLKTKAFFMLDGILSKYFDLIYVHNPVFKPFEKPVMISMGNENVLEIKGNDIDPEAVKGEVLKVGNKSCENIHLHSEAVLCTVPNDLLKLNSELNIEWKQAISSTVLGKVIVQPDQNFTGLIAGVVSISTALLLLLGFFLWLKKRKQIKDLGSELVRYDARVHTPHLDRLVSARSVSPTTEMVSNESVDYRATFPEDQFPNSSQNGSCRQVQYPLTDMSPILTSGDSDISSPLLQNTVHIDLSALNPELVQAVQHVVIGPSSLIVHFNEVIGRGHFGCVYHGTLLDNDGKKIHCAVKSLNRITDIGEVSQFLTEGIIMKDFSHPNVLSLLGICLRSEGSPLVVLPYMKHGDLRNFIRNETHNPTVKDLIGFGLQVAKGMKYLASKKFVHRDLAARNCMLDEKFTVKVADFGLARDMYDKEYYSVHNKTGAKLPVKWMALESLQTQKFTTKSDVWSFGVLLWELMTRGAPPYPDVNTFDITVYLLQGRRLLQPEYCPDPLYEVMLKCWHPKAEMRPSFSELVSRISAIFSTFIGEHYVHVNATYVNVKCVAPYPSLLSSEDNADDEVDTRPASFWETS

[3] = Antitumour activity against human U87MG cells xenografted in athymic nude mouse assessed as tumour growth inhibition at 3 mg/kg, po for 21 days relative to control; assay type: functional, U87; conditions: U-87 MG, 504 h, time 21 day, read-out: TGI
[4] = Oral bioavailability in Sprague-Dawley rat at 5 mg/kg up to 24 hrs by LC-MS/MS analysis; assay type: ADME, organism-based; conditions: in vivo
[5] = molecular target: T1, Tyrosine-protein kinase receptor UFO (Homo sapiens, UniProt P30530); test: Inhibition of AXL (unknown origin) using biotin as substrate preincubated for 5 mins followed by substrate addition and measured after 30 to 60 mins by HTRF assay
T1 sequence (P30530 whole entry): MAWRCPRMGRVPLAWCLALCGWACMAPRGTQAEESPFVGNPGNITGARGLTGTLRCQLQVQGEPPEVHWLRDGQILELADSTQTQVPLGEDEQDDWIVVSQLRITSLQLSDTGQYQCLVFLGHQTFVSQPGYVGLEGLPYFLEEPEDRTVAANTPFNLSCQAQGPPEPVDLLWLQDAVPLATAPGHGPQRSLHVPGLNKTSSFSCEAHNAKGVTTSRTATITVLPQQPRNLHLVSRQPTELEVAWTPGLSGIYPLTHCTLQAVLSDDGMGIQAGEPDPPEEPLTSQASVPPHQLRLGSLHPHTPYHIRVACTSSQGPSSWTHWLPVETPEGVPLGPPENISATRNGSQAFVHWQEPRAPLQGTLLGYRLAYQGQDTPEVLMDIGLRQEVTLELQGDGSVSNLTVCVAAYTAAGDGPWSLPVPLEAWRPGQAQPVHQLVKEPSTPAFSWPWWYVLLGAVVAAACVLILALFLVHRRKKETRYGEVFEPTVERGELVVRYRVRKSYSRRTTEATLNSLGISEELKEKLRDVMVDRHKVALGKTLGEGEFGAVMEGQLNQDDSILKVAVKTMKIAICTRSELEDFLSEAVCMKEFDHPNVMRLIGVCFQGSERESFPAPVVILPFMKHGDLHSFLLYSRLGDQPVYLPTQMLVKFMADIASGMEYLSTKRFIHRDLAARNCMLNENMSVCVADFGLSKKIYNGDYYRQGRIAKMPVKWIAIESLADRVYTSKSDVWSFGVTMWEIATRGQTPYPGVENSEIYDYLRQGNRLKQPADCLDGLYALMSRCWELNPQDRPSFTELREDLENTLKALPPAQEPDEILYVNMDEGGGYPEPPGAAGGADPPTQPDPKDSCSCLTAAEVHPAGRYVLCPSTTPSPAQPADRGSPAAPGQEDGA

[6] = Apparent volume of distribution in Sprague-Dawley rat at 1 mg/kg, iv up to 24 hrs by LC-MS/MS analysis; assay type: ADME, organism-based; conditions: in vivo, read-out: Vz
[7] = Cmax in Sprague-Dawley rat at 1 mg/kg, iv up to 24 hrs by LC-MS/MS analysis; assay type: ADME, organism-based; set-up: route intravenous, dose 1 mg/kg, time <=24; conditions: in vivo
[8] = Apparent volume of distribution in Sprague-Dawley rat at 5 mg/kg, po up to 24 hrs by LC-MS/MS analysis; assay type: ADME, organism-based; conditions: in vivo
[9] = AUC (0 to infinity) in Sprague-Dawley rat at 1 mg/kg, iv up to 24 hrs by LC-MS/MS analysis; assay type: ADME, organism-based; set-up: route intravenous, dose 1 mg/kg, time <=24; conditions: in vivo
Angiopoietin-1 receptor = Angiopoietin-1 receptor (Homo sapiens, UniProt Q02763); test: Inhibition of TEK (unknown origin) using biotin as substrate preincubated for 5 mins followed by substrate addition and measured after 30 to 60 mins by HTRF assay
Sequence of Angiopoietin-1 receptor (Q02763 whole entry): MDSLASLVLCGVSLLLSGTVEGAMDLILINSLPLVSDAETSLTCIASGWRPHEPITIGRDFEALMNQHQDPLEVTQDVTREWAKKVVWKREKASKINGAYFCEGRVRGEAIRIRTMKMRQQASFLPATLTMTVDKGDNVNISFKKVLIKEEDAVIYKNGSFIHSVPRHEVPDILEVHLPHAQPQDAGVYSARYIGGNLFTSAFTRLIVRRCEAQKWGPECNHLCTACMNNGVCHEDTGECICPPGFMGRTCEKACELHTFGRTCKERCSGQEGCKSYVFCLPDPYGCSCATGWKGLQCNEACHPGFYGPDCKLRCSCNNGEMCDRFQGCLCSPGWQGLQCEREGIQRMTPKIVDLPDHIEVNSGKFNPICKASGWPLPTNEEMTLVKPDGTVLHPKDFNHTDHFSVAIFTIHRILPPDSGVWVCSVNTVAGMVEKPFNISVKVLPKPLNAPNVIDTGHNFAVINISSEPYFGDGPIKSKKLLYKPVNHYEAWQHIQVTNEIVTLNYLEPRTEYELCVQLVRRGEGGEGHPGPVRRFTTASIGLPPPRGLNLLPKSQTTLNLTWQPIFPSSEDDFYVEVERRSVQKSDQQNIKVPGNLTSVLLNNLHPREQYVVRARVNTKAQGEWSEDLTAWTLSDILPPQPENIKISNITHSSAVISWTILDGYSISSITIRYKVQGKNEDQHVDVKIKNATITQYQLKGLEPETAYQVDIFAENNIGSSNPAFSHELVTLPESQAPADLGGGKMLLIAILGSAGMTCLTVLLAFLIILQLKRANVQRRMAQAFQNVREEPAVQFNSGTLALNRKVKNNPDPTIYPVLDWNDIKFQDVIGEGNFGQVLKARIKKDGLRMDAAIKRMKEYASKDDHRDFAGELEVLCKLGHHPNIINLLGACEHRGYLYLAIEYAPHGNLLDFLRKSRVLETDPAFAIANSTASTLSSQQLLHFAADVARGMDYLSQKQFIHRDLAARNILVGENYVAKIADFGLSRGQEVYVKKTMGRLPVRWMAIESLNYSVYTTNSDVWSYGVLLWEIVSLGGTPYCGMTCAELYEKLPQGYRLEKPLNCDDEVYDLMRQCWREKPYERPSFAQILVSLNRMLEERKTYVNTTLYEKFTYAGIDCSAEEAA

animal or person = conditions: Homo sapiens, U-87 MG, po, 504 h, read-out: TGI
[10] = molecular target: Vascular endothelial growth factor receptor 3 (Homo sapiens, UniProt P35916); test: Inhibition of FLT4 (unknown origin) using biotin as substrate preincubated for 5 mins followed by substrate addition and measured after 30 to 60 mins by HTRF assay
Sequence of Vascular endothelial growth factor receptor 3 (P35916 whole entry): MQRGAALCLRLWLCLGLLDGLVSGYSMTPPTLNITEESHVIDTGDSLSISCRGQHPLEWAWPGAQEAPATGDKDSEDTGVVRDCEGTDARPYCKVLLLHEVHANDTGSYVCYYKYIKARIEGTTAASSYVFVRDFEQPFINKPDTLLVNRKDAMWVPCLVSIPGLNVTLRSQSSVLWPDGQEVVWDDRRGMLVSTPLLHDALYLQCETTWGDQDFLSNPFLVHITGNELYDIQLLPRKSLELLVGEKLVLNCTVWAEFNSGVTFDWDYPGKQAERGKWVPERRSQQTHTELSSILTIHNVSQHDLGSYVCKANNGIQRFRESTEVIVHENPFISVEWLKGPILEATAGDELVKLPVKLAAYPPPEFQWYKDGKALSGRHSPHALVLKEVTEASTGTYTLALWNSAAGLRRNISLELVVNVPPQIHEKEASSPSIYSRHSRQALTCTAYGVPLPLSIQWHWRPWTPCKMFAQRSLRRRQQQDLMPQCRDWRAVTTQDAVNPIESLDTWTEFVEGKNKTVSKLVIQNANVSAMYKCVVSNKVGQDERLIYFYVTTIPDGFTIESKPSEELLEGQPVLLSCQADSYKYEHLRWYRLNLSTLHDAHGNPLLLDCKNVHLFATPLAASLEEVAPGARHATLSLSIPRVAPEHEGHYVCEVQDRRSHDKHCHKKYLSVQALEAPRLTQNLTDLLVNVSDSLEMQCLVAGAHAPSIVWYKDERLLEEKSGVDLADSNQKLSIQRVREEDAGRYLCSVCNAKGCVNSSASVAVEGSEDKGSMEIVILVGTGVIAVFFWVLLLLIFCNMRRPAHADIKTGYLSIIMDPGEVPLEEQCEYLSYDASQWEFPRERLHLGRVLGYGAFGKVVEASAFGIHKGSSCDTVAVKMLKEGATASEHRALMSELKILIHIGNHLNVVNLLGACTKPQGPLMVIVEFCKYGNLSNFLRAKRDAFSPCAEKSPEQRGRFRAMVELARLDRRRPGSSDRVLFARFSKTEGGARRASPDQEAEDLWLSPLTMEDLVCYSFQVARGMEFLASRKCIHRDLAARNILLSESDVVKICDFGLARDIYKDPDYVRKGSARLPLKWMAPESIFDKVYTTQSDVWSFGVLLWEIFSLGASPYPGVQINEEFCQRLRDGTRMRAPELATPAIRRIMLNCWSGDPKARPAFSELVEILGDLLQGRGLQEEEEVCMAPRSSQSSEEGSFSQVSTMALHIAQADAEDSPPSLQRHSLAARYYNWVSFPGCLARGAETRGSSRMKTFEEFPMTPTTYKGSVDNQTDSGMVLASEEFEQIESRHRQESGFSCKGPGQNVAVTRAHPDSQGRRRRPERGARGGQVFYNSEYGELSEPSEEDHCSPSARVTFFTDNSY

[11] = Clearance in Sprague-Dawley rat at 1 mg/kg, iv up to 24 hrs by LC-MS/MS analysis; assay type: ADME, organism-based; conditions: in vivo
[12] = Tmax in Sprague-Dawley rat at 5 mg/kg, po up to 24 hrs by LC-MS/MS analysis; assay type: ADME, organism-based; conditions: in vivo
[13] = Half life in Sprague-Dawley rat at 1 mg/kg, iv up to 24 hrs by LC-MS/MS analysis; assay type: ADME, organism-based; conditions: in vivo
[14] = AUC (0 to infinity) in Sprague-Dawley rat at 5 mg/kg, po up to 24 hrs by LC-MS/MS analysis; assay type: ADME, organism-based; set-up: route oral, dose 5 mg/kg, time <=24; conditions: in vivo
[15] = Half life in Sprague-Dawley rat at 5 mg/kg, po up to 24 hrs by LC-MS/MS analysis; assay type: ADME, organism-based; conditions: in vivo
[16] = Antitumour activity against human U87MG cells xenografted in athymic nude mouse assessed as tumour growth inhibition at 37.5 mg/kg, po for 21 days relative to control; assay type: functional, U87; conditions: U-87 MG, 504 h, time 21 day, read-out: TGI
[17] = Cmax in Sprague-Dawley rat at 5 mg/kg, po up to 24 hrs by LC-MS/MS analysis; assay type: ADME, organism-based; set-up: route oral, dose 5 mg/kg, time <=24; conditions: in vivo
U87 = test: Antitumour activity against human U87MG cells xenografted in po dosed athymic nude mouse assessed as tumour growth inhibition for 21 days; assay type: functional, organism-based; conditions: dose 3-37.5 mg/kg, time 21.0 day
[18] = Clearance in Sprague-Dawley rat at 5 mg/kg, po up to 24 hrs by LC-MS/MS analysis; assay type: ADME, organism-based; conditions: in vivo
[19] = Antitumour activity against human U87MG cells xenografted in athymic nude mouse assessed as tumour growth inhibition at 6 mg/kg, po for 21 days relative to control; assay type: functional, U87; conditions: U-87 MG, 504 h, time 21 day, read-out: TGI

Row | SMILES | IC50 (NCI-H460) [µM] | IC50 (MKN-45) [µM] | half-life [1] [h] | IC50 (cells) [µM] | IC50 (HT-29) [µM] | IC50 [2] [µM] | also measured
1 | COc1cc2c(Oc3ccc(Nc4nccc5[nH]cc(-c6ccc(F)cc6)c(=O)c45)cc3F)ccnc2cc1OCCO | 2 | 1.6 | 1.48 | 4.1 | 2.9 | 0.0057 | 
2 | COc1cc2c(Oc3ccc(Nc4nccc5[nH]cc(-c6ccc(F)cc6)c(=O)c45)cc3F)ccnc2cc1OCC(C)(C)OC |  |  |  |  |  | 0.0121 | 
3 | COc1cc2c(Oc3ccc(Nc4nccc5[nH]cc(-c6ccc(F)cc6)c(=O)c45)cc3F)ccnc2cc1OCC(C)(C)O | 1.7 | 1.4 | 5.17 | 2.6 | 2.1 |  | 
4 | COCCOc1cc2nccc(Oc3ccc(Nc4nccc5[nH]cc(-c6ccc(F)cc6)c(=O)c45)cc3F)c2cc1OC | 3 | 3.1 | 1.06 | 5.2 | 4.6 | 0.083 | 
5 | O=c1c(-c2ccc(F)cc2)c[nH]c2ccnc(Nc3ccc(Oc4ccnc5cc(O)ccc45)c(F)c3)c12 | 43 | 5 | 0.893 | 7.2 | 5.9 | 0.005 | 
6 | COC(C)(C)COc1ccc2c(Oc3ccc(Nc4nccc5[nH]cc(-c6ccc(F)cc6)c(=O)c45)cc3F)ccnc2c1 | 4.4 | 5.5 | 1.45 | 16.4 | 4.8 | 0.0131 | 
7 | COc1cc2nccc(Oc3ccc(Nc4nccc5[nH]cc(-c6ccc(F)cc6)c(=O)c45)cc3F)c2cc1OC |  |  |  |  |  | 0.0766 | 
8 | O=c1c(-c2ccccc2)c[nH]c2ccnc(Nc3ccc(Oc4ccnc5cc(OCCCN6CCOCC6)ccc45)c(F)c3)c12 |  |  | 0.297 |  |  |  | 
9 | COc1cc2c(Oc3ccc(Nc4nccc5[nH]cc(-c6ccc(F)cc6)c(=O)c45)cc3F)ccnc2cc1OCC(C)C |  |  |  |  |  | 0.0197 | 
10 | CC(C)(O)COc1ccc2c(Oc3ccc(Nc4nccc5[nH]cc(-c6ccc(F)cc6)c(=O)c45)cc3F)ccnc2c1 | 3.2 | 2.7 | 4.14 | 4.7 | 3.4 |  | 
11 | Cc1[nH]c2ccnc(Nc3ccc(Oc4ccnc5cc(OCC(C)(C)O)ccc45)c(F)c3)c2c(=O)c1-c1ccccc1 |  |  |  |  |  | 0.0403 | 
12 | O=c1c(-c2ccc(F)cc2)c[nH]c2ccnc(Nc3ccc(Oc4ccnc5cc(OCCN6CCOCC6)ccc45)c(F)c3)c12 |  |  | 0.11 |  |  |  | 
13 | CC(O)COc1ccc2c(Oc3ccc(Nc4nccc5[nH]cc(-c6ccc(F)cc6)c(=O)c45)cc3F)ccnc2c1 (stereo not given) | 3.4 | 3.1 | 1.42 | 8.5 | 3.9 | 0.133 | 
14 | O=c1c(-c2ccc(F)cc2)c[nH]c2ccnc(Nc3ccc(Oc4ccnc5cc(OCCO)ccc45)c(F)c3)c12 | 3.5 | 4.7 | 1.51 | 4.9 | 5.5 |  | 
15 | COCCOc1ccc2c(Oc3ccc(Nc4nccc5[nH]cc(-c6ccc(F)cc6)c(=O)c45)cc3F)ccnc2c1 | 4.3 | 5.6 | 1.73 | 5.1 | 6.5 | 0.0084 | 
16 | COCCOc1cc2nccc(Oc3ccc(Nc4nccc5[nH]cc(-c6ccccc6)c(=O)c45)cc3F)c2cc1OC |  |  |  |  |  | 0.0077 | 
17 | CC(C)COc1ccc2c(Oc3ccc(Nc4nccc5[nH]cc(-c6ccc(F)cc6)c(=O)c45)cc3F)ccnc2c1 |  |  | 1.5 |  |  | 0.0278 | 
18 | CC(C)(O)COc1ccc2c(Oc3ccc(Nc4nccc5[nH]cc(-c6ccccc6)c(=O)c45)cc3F)ccnc2c1 | 3.6 | 2.9 | 5.37 | 4.5 | 4.2 |  | inhibition in vivo at 3 mg/kg [3]: 47%; bioavailability [4]: 32%; IC50 [5]: 0.0323 µM; Vd [6]: 0.9 L/kg; Cmax [7]: 0.5 µg/mL; Vz [8]: 3.3 L/kg; AUC(0-inf) [9]: 6.6 µg·h/mL; IC50 (Angiopoietin-1 receptor): 0.019 µM; inhibition in vivo at 12.5 mg/kg (animal or person): 131%; IC50 [10]: 0.116 µM; clearance [11]: 0.2 L/h/kg; Tmax [12]: 4 h; half-life [13]: 4 h; AUC(0-inf) [14]: 10.7 µg·h/mL; half-life [15]: 4.9 h; inhibition in vivo at 37.5 mg/kg [16]: 172%; Cmax [17]: 1.5 µg/mL; TGI (U87): Dose-dependent effect; CL/F [18]: 0.5 L/h/kg; inhibition in vivo at 6 mg/kg [19]: 57%
